The target in assay [1] is ERβ (Homo sapiens, UniProt Q92731). Put plainly: Transient transfection transactivation assay, rat oxytocin promoter-luciferase reporter in CHO cells, ERβ. In general terms: Reporter assays use an easily measured gene product as a stand-in for the process of interest.
For assay [2], the target named is T1, ERα (Homo sapiens, UniProt P03372).
T1 construct: expressed in transfected cells
Kind of assay: Transactivation assay in stably transfected CHO cell line expressing ERα with rat oxytocin-luciferase reporter. The class given is cell-based. The note with it: stably transfected CHO cell lines ERα vs ERβ; agonist curves FIGS. 5A, 5B.

Each structure is given as a SMILES string.

Chain of ERβ (Q92731 whole entry): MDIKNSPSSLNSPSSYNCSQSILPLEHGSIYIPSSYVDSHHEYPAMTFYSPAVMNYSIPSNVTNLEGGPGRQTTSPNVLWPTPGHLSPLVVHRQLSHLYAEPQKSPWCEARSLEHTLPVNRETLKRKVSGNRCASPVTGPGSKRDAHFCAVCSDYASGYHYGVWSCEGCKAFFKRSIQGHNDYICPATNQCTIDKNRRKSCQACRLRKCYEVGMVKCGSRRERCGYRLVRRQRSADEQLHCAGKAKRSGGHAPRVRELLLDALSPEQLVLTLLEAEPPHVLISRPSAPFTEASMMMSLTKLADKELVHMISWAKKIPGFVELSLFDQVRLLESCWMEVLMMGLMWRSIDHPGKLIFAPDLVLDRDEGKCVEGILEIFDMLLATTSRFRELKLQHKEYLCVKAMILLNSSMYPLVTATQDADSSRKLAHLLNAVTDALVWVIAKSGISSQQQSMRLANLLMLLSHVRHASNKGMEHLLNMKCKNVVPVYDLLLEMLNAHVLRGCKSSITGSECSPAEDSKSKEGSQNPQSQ
T1 sequence (P03372 whole entry): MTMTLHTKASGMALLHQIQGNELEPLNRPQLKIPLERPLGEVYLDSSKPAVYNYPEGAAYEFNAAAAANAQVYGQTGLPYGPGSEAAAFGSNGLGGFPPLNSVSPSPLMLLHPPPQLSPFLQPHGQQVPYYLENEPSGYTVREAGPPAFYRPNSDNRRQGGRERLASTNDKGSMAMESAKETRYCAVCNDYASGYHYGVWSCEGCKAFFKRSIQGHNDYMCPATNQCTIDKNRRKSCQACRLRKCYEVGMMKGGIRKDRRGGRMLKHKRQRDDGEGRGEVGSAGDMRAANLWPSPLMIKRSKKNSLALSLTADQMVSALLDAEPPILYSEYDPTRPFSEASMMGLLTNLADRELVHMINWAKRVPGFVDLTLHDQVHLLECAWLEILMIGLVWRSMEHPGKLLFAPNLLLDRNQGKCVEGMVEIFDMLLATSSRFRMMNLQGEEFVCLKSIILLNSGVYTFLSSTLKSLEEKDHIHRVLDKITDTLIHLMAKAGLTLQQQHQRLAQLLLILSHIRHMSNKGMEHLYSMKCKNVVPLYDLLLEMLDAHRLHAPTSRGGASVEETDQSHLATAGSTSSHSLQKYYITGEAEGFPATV

On to `C[C@]12CC[C@@H]3c4ccc(O)cc4CC[C@H]3[C@@H]1CC[C@@H]2O` [17β-estradiol], for which, in assay [1] (10^−9 mol/L 17β-estradiol, transient CHO, normalised for β-galactosidase, FIG. 3), the “stimulation of luciferase activity with ERβ” value came to 7 fold. Further, in assay [1] (CHO cells transiently transfected with ERβ expression vector and reporter, hormones 10^−7 mol/L, FIG. 2), the “increase in luciferase activity as compared to untreated cells” value was in the range of 3 to 4 fold. With `C#C[C@]1(O)CC[C@H]2[C@@H]3[C@H](C)CC4=C(CC[C@@H](O)C4)[C@H]3CC[C@@]21C` [Org4094], the “concentration for half-maximal transactivation, ERα as compared to ERβ” value in assay [2] is given as “much more pronounced”.
